Measurements published in the kinase profiling compilation of Christmann-Franck et al. (2016).

What was measured:
Test in all cases: radiometric filter-binding kinase assay, Kinase HotSpot
Conditions in all cases: compound 0.5 µM; ATP 10 µM
AKT1 (human) = AKT1 (human) (UniProt P31749)
AKT2 (human) = AKT2 (human) (UniProt P31751)
AURKA (human) = AURKA (human) (UniProt O14965)
AURKB (human) = AURKB (human) (UniProt Q96GD4)
AXL (human) = AXL (human) (UniProt P30530)
CAMK1G (human) = CAMK1G (human) (UniProt Q96NX5)
CAMKK1 (human) = CAMKK1 (human) (UniProt Q8N5S9)
CAMKK1 (human), sequence (Q8N5S9 whole entry, looked up): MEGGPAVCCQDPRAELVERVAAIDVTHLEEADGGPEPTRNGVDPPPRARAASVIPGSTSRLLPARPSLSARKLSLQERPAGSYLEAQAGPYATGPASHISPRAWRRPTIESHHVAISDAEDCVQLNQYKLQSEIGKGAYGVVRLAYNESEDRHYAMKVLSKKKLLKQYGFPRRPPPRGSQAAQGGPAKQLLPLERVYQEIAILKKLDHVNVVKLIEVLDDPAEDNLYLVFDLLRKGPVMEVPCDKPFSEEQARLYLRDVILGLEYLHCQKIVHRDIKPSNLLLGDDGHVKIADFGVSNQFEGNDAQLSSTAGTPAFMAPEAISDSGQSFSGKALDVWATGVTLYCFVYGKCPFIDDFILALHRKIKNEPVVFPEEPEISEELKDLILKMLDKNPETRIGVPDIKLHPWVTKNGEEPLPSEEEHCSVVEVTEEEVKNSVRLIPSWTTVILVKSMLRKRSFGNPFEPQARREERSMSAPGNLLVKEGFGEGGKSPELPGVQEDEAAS

CDK7 CCNH MNAT1 (human) = CDK7 CCNH MNAT1 (human) (UniProt P50613+P51948+P51946)
CSNK1G2 (human) = CSNK1G2 (human) (UniProt P78368)
CSNK1G3 (human) = CSNK1G3 (human) (UniProt Q9Y6M4)
DAPK2 (human) = DAPK2 (human) (UniProt Q9UIK4)
DMPK (human) = DMPK (human) (UniProt Q09013)
DYRK1B (human) = DYRK1B (human) (UniProt Q9Y463)
DYRK2 (human) = DYRK2 (human) (UniProt Q92630)
EPHA3 (human) = EPHA3 (human) (UniProt P29320)
EPHB4 (human) = EPHB4 (human) (UniProt P54760)
FES (human) = FES (human) (UniProt P07332)
FGFR1 (human) = FGFR1 (human) (UniProt P11362)
FGR (human) = FGR (human) (UniProt P09769)
INSR (human) = INSR (human) (UniProt P06213)
IRAK4 (human) = IRAK4 (human) (UniProt Q9NWZ3)
LCK (human) = LCK (human) (UniProt P06239)
MAP3K3 (human) = MAP3K3 (human) (UniProt Q99759)
MAP4K4 (human) = MAP4K4 (human) (UniProt O95819)
MAPK12 (human) = MAPK12 (human) (UniProt P53778)
MAPK12 (human), sequence (P53778 whole entry, looked up): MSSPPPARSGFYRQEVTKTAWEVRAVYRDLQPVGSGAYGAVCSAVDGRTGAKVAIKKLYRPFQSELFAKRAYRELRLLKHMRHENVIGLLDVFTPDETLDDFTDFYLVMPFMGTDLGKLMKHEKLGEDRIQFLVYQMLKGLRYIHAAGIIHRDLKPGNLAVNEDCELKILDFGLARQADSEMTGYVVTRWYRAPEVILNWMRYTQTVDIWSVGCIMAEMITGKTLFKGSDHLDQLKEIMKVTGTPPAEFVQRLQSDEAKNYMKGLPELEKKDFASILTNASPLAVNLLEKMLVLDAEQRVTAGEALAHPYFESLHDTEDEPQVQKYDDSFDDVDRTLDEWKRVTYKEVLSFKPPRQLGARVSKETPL

MAPKAPK2 (human) = MAPKAPK2 (human) (UniProt P49137)
MAPKAPK5 (human) = MAPKAPK5 (human) (UniProt Q8IW41)
MAPKAPK5 (human), sequence (Q8IW41 whole entry, looked up): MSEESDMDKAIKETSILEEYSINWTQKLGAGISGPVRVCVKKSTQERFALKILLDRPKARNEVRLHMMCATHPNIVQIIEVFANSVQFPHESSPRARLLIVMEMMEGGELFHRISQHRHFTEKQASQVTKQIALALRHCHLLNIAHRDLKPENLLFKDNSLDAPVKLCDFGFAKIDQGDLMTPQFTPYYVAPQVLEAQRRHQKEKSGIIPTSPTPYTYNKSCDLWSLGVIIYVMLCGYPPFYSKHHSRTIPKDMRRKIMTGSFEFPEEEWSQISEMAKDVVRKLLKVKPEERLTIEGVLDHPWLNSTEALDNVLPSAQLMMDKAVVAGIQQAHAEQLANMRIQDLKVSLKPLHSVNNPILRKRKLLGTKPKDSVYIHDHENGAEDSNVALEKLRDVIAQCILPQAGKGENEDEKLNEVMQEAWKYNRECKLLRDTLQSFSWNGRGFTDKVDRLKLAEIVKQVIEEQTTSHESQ

MARK2 (human) = MARK2 (human) (UniProt Q7KZI7)
NEK3 (human) = NEK3 (human) (UniProt P51956)
NEK3 (human), sequence (P51956 whole entry, looked up): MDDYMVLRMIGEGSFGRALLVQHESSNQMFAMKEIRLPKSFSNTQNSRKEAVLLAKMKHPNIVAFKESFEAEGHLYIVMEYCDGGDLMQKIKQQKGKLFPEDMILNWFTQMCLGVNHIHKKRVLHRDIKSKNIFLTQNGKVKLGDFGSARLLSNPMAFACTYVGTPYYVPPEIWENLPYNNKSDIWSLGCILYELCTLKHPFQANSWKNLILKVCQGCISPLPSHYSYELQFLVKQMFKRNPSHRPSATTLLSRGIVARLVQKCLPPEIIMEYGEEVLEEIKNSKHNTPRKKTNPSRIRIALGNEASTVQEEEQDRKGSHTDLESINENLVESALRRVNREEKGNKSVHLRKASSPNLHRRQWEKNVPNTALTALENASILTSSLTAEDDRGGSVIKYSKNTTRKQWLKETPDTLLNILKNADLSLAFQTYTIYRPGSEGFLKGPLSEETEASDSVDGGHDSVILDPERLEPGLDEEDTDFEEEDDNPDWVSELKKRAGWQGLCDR

NEK6 (human) = NEK6 (human) (UniProt Q9HC98)
NTRK3 (human) = NTRK3 (human) (UniProt Q16288)
NUAK1 (human) = NUAK1 (human) (UniProt O60285)
PIM2 (human) = PIM2 (human) (UniProt Q9P1W9)
PIM2 (human), sequence (Q9P1W9 whole entry, looked up): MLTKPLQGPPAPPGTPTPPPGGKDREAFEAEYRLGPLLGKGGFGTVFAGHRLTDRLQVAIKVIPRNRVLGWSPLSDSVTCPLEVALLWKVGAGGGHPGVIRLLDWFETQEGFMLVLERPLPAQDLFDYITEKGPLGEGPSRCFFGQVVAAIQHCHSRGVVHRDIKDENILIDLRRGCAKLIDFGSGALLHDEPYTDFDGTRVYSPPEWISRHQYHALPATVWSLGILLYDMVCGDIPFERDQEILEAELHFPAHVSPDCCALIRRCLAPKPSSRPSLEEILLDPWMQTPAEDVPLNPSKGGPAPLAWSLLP

PRKCB1 (human) = PRKCB1 (human) (UniProt P05771)
PRKCZ (human) = PRKCZ (human) (UniProt Q05513)
PRKCZ (human), sequence (Q05513 whole entry, looked up): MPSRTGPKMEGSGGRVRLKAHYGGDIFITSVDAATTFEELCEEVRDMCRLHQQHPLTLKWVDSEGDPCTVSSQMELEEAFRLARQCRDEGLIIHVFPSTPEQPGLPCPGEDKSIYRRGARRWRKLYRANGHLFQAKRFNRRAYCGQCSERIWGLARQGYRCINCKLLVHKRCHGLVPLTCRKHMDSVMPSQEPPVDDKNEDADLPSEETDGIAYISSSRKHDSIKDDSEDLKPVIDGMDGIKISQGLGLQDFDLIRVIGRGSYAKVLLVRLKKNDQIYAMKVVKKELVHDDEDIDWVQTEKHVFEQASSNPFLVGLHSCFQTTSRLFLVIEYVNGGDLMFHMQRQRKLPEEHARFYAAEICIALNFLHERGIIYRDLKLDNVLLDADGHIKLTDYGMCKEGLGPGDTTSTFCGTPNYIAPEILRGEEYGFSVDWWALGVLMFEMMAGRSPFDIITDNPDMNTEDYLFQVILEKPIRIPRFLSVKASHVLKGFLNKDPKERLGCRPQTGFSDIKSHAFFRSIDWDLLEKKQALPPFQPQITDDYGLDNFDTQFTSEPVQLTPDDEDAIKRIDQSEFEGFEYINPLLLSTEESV

PTK6 (human) = PTK6 (human) (UniProt Q13882)
PTK6 (human), sequence (Q13882 whole entry, looked up): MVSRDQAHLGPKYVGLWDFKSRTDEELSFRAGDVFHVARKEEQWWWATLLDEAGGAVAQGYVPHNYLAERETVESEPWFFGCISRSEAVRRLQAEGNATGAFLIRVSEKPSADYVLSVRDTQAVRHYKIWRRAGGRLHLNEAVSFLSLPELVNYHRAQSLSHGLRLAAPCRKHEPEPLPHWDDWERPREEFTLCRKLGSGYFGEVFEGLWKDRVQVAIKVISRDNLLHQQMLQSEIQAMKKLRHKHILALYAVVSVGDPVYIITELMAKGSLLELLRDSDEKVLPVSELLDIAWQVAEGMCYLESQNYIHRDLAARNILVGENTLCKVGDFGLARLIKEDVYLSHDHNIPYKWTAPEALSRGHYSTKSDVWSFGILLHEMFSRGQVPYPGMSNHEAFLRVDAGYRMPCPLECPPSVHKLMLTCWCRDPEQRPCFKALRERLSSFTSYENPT

STK16 (human) = STK16 (human) (UniProt O75716)
STK16 (human), sequence (O75716 whole entry, looked up): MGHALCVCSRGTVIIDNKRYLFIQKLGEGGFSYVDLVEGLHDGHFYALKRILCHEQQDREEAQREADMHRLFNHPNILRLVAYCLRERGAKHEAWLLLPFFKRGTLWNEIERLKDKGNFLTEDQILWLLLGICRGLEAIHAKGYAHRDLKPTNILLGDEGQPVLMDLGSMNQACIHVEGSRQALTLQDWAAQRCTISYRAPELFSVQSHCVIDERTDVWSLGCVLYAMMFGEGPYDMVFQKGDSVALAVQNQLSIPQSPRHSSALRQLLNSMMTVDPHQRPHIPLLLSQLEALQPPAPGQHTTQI

STK3 (human) = STK3 (human) (UniProt Q13188)
STK3 (human), sequence (Q13188 whole entry, looked up): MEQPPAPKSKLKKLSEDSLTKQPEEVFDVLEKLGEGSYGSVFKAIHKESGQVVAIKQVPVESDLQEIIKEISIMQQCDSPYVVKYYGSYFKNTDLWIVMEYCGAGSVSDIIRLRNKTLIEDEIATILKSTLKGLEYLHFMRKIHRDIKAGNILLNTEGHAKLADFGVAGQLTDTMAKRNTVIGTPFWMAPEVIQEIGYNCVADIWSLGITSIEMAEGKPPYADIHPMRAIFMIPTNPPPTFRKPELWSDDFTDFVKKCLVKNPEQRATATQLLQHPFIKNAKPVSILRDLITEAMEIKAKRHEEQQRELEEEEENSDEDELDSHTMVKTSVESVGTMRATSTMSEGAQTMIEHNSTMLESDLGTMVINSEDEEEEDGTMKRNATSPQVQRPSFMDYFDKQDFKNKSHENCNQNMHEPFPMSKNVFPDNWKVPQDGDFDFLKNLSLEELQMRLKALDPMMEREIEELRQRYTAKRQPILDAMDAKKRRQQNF

STK4 (human) = STK4 (human) (UniProt Q13043)
TAOK1 (human) = TAOK1 (human) (UniProt Q7L7X3)
TTK (human) = TTK (human) (UniProt P33981)
TXK (human) = TXK (human) (UniProt P42681)

AKT2 (human), sequence (P31751 whole entry, looked up): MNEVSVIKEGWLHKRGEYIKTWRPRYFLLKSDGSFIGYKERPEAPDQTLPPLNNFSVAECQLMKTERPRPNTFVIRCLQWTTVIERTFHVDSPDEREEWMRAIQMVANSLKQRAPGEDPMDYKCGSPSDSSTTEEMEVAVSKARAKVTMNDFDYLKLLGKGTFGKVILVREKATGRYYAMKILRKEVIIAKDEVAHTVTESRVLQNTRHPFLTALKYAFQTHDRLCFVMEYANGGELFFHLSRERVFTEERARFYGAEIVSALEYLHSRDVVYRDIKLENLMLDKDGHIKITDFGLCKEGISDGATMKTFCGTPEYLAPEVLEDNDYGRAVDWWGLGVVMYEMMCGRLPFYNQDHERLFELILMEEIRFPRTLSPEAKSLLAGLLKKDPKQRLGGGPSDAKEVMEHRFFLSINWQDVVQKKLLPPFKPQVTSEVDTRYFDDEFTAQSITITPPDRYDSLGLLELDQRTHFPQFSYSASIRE
AKT1 (human), sequence (P31749 whole entry, looked up): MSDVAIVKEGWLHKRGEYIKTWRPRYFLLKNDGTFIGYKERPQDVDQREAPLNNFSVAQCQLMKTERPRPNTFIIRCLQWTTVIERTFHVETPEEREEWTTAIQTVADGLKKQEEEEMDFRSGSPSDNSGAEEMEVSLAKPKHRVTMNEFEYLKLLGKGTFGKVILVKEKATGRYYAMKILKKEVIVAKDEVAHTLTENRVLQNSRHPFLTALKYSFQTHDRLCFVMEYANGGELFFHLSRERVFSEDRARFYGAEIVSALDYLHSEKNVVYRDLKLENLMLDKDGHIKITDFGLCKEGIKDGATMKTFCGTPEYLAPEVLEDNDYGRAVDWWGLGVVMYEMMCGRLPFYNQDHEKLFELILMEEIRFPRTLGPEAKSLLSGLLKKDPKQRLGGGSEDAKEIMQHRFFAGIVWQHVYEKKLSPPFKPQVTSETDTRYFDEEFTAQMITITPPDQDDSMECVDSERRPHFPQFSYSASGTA

COc1cc2ncnc(Nc3ccc(Oc4ccccc4)cc3)c2cc1OC
residual activity (AKT1 (human)): 107%
residual activity (AKT2 (human)): 99.4%
residual activity (AURKA (human)): 79.2%
residual activity (AURKB (human)): 50.9%
residual activity (AXL (human)): 98.2%
residual activity (CAMK1G (human)): 101%
residual activity (CAMKK1 (human)): 93.1%
residual activity (CDK7 CCNH MNAT1 (human)): 102%
residual activity (CSNK1G2 (human)): 99.9%
residual activity (CSNK1G3 (human)): 99.4%
residual activity (DAPK2 (human)): 102%
residual activity (DMPK (human)): 106%
residual activity (DYRK1B (human)): 97%
residual activity (DYRK2 (human)): 104%
residual activity (EPHA3 (human)): 101%
residual activity (EPHB4 (human)): 85.5%
residual activity (FES (human)): 99.6%
residual activity (FGFR1 (human)): 85%
residual activity (FGR (human)): 8.91%
residual activity (INSR (human)): 88.8%
residual activity (IRAK4 (human)): 112%
residual activity (LCK (human)): 4.72%
residual activity (MAP3K3 (human)): 94.5%
residual activity (MAP4K4 (human)): 90.5%
residual activity (MAPK12 (human)): 105%
residual activity (MAPKAPK2 (human)): 103%
residual activity (MAPKAPK5 (human)): 98%
residual activity (MARK2 (human)): 95.3%
residual activity (NEK3 (human)): 98.4%
residual activity (NEK6 (human)): 93%
residual activity (NTRK3 (human)): 99.7%
residual activity (NUAK1 (human)): 105%
residual activity (PIM2 (human)): 107%
residual activity (PRKCB1 (human)): 109%
residual activity (PRKCZ (human)): 100%
residual activity (PTK6 (human)): -0.0383%
residual activity (STK16 (human)): 107%
residual activity (STK3 (human)): 121%
residual activity (STK4 (human)): 107%
residual activity (TAOK1 (human)): 105%
residual activity (TTK (human)): 90%
residual activity (TXK (human)): 78%

COc1ccc(C(=O)Nc2sc3c(c2C(N)=O)CCCC3)cc1OC
residual activity (AKT1 (human)): 99.7%
residual activity (AKT2 (human)): 97%
residual activity (AURKA (human)): 97.9%
residual activity (AURKB (human)): 96.2%
residual activity (AXL (human)): 84.4%
residual activity (CAMK1G (human)): 99.4%
residual activity (CAMKK1 (human)): 125%
residual activity (CDK7 CCNH MNAT1 (human)): 99.9%
residual activity (CSNK1G2 (human)): 98.7%
residual activity (CSNK1G3 (human)): 91.7%
residual activity (DAPK2 (human)): 106%
residual activity (DMPK (human)): 108%
residual activity (DYRK1B (human)): 104%
residual activity (DYRK2 (human)): 92%
residual activity (EPHA3 (human)): 108%
residual activity (EPHB4 (human)): 93.9%
residual activity (FES (human)): 102%
residual activity (FGFR1 (human)): 94.8%
residual activity (FGR (human)): 90%
residual activity (INSR (human)): 93.2%
residual activity (IRAK4 (human)): 94.8%
residual activity (LCK (human)): 93.8%
residual activity (MAP3K3 (human)): 100%
residual activity (MAP4K4 (human)): 79.9%
residual activity (MAPK12 (human)): 96.5%
residual activity (MAPKAPK2 (human)): 104%
residual activity (MAPKAPK5 (human)): 86.4%
residual activity (MARK2 (human)): 98.7%
residual activity (NEK3 (human)): 95.8%
residual activity (NEK6 (human)): 92.7%
residual activity (NTRK3 (human)): 57.7%
residual activity (NUAK1 (human)): 81.8%
residual activity (PIM2 (human)): 98.5%
residual activity (PRKCB1 (human)): 91.8%
residual activity (PRKCZ (human)): 89.3%
residual activity (PTK6 (human)): 97.8%
residual activity (STK16 (human)): 106%
residual activity (STK3 (human)): 99.6%
residual activity (STK4 (human)): 104%
residual activity (TAOK1 (human)): 95.5%
residual activity (TTK (human)): 95.6%
residual activity (TXK (human)): 96.2%

Ic1cccc(CSc2nnc(-c3ccncc3)o2)c1
residual activity (AKT1 (human)): 98.6%
residual activity (AKT2 (human)): 101%
residual activity (AURKA (human)): 95.8%
residual activity (AURKB (human)): 99.1%
residual activity (AXL (human)): 99.2%
residual activity (CAMK1G (human)): 95.9%
residual activity (CAMKK1 (human)): 124%
residual activity (CDK7 CCNH MNAT1 (human)): 96.7%
residual activity (CSNK1G2 (human)): 99.2%
residual activity (CSNK1G3 (human)): 75.9%
residual activity (DAPK2 (human)): 108%
residual activity (DMPK (human)): 105%
residual activity (DYRK1B (human)): 96.7%
residual activity (DYRK2 (human)): 96.8%
residual activity (EPHA3 (human)): 111%
residual activity (EPHB4 (human)): 101%
residual activity (FES (human)): 98%
residual activity (FGFR1 (human)): 92.4%
residual activity (FGR (human)): 90.9%
residual activity (INSR (human)): 83.5%
residual activity (IRAK4 (human)): 105%
residual activity (LCK (human)): 98.5%
residual activity (MAP3K3 (human)): 89.6%
residual activity (MAP4K4 (human)): 97.4%
residual activity (MAPK12 (human)): 93%
residual activity (MAPKAPK2 (human)): 93.5%
residual activity (MAPKAPK5 (human)): 83.6%
residual activity (MARK2 (human)): 116%
residual activity (NEK3 (human)): 86.9%
residual activity (NEK6 (human)): 95.4%
residual activity (NTRK3 (human)): 104%
residual activity (NUAK1 (human)): 95.1%
residual activity (PIM2 (human)): 102%
residual activity (PRKCB1 (human)): 97.5%
residual activity (PRKCZ (human)): 96.1%
residual activity (PTK6 (human)): 104%
residual activity (STK16 (human)): 110%
residual activity (STK3 (human)): 110%
residual activity (STK4 (human)): 102%
residual activity (TAOK1 (human)): 101%
residual activity (TTK (human)): 103%
residual activity (TXK (human)): 96.8%
